The values below come from PubChem BioAssay (NCI).

Where “and” joins values, the source holds several entries; their conditions need not be identical. Equal entries are not always repeated.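 All cell lines were grown in 96-well plates and treated with compound for 48 hours. Here, GI50 denotes the concentration required for 50% inhibition of growth. Definition used: TGI = concentration required for complete inhibition of growth.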 Some results are limits rather than exact numbers.

Among the test systems are KM12 colon; A498 renal; TK-10 renal; U251 CNS; HT29 colon; UACC-62 melanoma; T-47D breast; OVCAR-4 ovarian; OVCAR-8 ovarian; SF-268 CNS.
What all share (assay): NCI tumour cell line growth inhibition, 48 h

On to `O=C1CCC(N2C(=O)c3cccc(NCCCC4CCN(CCNC(=O)c5cc6c(o5)C(=O)c5ccccc5C6=O)CC4)c3C2=O)C(=O)N1` (stereo not given), for which the GI50 was 1.29 µM in the assay with KM12 colon; 1.41 µM with A498 renal; 2.25 µM in the assay with TK-10 renal; 1.14 µM in the assay with U251 CNS; 0.823 µM with HT29 colon; 0.304 µM in the assay with UACC-62 melanoma. Besides, the GI50 is 1.82 µM with T-47D breast, 0.747 µM with OVCAR-4 ovarian, 1.41 µM in the assay with OVCAR-8 ovarian and 2.06 µM in the assay with SF-268 CNS. For the same molecule, the TGI was 3.97 µM with KM12 colon; 2.75 µM with A498 renal; 4.4 µM in the assay with TK-10 renal; 2.45 µM in the assay with U251 CNS; 8.81 µM in the assay on HT29 colon; 0.98 µM in the assay on UACC-62 melanoma. Besides, the TGI was determined as 11 µM in the assay with T-47D breast, 2.08 µM in the assay with OVCAR-4 ovarian, 7.18 µM with OVCAR-8 ovarian and 7.65 µM in the assay with SF-268 CNS.
For the molecule `CCOC(=O)C1=C(C)N2C(=NC3=C(CCC/C3=C\c3ccc(Cl)cc3)C2c2ccc(Cl)cc2)S1` (stereo not given), the GI50 in the assay on KM12 colon was 1.93 µM; in the assay with A498 renal it was 1.37 µM; in the assay on TK-10 renal it was 5.23 µM; in the assay with U251 CNS, 1.86 µM; in the assay on HT29 colon, 2.35 µM; in the assay on UACC-62 melanoma, 3.25 µM. The GI50 in the assay on T-47D breast is 3.61 µM; in the assay on OVCAR-4 ovarian, 2.85 µM; in the assay on OVCAR-8 ovarian, 3.24 µM; in the assay on SF-268 CNS it was 3.24 µM. Besides, the TGI came out at 3.68 µM in the assay on KM12 colon; 3.09 µM with A498 renal; 65.9 µM in the assay on TK-10 renal; 4.06 µM in the assay on U251 CNS; 5.92 µM in the assay on HT29 colon; 16.8 µM with UACC-62 melanoma. For the same molecule, the TGI amounted to 28.3 µM in the assay on T-47D breast, 19.2 µM with OVCAR-4 ovarian, 31 µM with OVCAR-8 ovarian and 30.4 µM with SF-268 CNS.
Consider `C=CCn1c(=O)c2cnc(Nc3ccc(N4CCN(C)CC4)cc3)nc2n1-c1cccc(C(C)(C)O)n1`, for which the GI50 in the assay with KM12 colon was 0.293 µM and 0.364 µM; in the assay with A498 renal it was 0.0319 µM and 0.0572 µM; in the assay on TK-10 renal it was 0.1 µM and 0.31 µM; in the assay on U251 CNS it was 0.707 µM and 1.18 µM; in the assay on HT29 colon it was 0.207 µM and 0.286 µM; with UACC-62 melanoma, 1.18 µM and 0.484 µM. In addition, the GI50 in the assay on T-47D breast was 2.52 µM and 0.644 µM; in the assay with OVCAR-4 ovarian, 0.373 µM and 0.507 µM; with OVCAR-8 ovarian, 0.417 µM and 0.526 µM; in the assay on SF-268 CNS it was 1.49 µM and 1.69 µM. In addition, the TGI in the assay with KM12 colon was 1.53 µM and 3.07 µM; with A498 renal it was 0.364 µM and 0.448 µM; in the assay on TK-10 renal, 5.94 µM and > 10 µM; with U251 CNS, 19.9 µM and > 10 µM; in the assay on HT29 colon, 0.643 µM and > 3.82 µM; in the assay with UACC-62 melanoma, 20.5 µM and > 10 µM. Moreover, the TGI in the assay on T-47D breast was more than 100 µM; in the assay with OVCAR-4 ovarian it was 28.7 µM and > 10 µM; in the assay with OVCAR-8 ovarian, 2.91 µM and > 7.79 µM; in the assay on SF-268 CNS, 51.9 µM and > 10 µM.
Consider `CC1=C(C(=O)Nc2ccc(F)c(Cl)c2)C(c2ccccc2O)NC(=O)N1` (stereo not given), for which the GI50 was 70.9 µM in the assay on KM12 colon; more than 100 µM in the assay with A498 renal; 32.4 µM with TK-10 renal; more than 100 µM in the assay on U251 CNS; 41.4 µM with HT29 colon; 49 µM in the assay on UACC-62 melanoma. For the same molecule, the GI50 in the assay with T-47D breast was 42.4 µM; with OVCAR-4 ovarian it was 12.2 µM; in the assay on OVCAR-8 ovarian, more than 100 µM; in the assay on SF-268 CNS, more than 100 µM. In addition, the TGI in the assay with KM12 colon was more than 100 µM; in the assay on A498 renal, more than 100 µM; in the assay with TK-10 renal, 67.9 µM; in the assay with U251 CNS it was more than 100 µM; in the assay on HT29 colon it was more than 100 µM; in the assay with UACC-62 melanoma it was more than 100 µM. Besides, the TGI in the assay with T-47D breast is more than 100 µM; with OVCAR-4 ovarian, 68.6 µM; in the assay with OVCAR-8 ovarian, more than 100 µM; in the assay on SF-268 CNS, more than 100 µM.
For the molecule `NNc1c2ccccc2nc2ccccc12`, the GI50 with KM12 colon was 4.55 µM; in the assay with A498 renal, 1.43 µM; in the assay on TK-10 renal, 8.32 µM; with U251 CNS, 4.89 µM; in the assay with HT29 colon it was 3.28 µM; with UACC-62 melanoma, 3.44 µM. Further, the GI50 is 6.08 µM with T-47D breast, 2.62 µM with OVCAR-4 ovarian, 5.09 µM in the assay on OVCAR-8 ovarian and 5.94 µM in the assay with SF-268 CNS. Also, the TGI with KM12 colon turned out to be 27.8 µM; in the assay with A498 renal it was 17.5 µM; with TK-10 renal, 26.7 µM; with U251 CNS, 40.6 µM; in the assay with HT29 colon, 16.1 µM; with UACC-62 melanoma, 19.3 µM. For the same molecule, the TGI in the assay with T-47D breast was 73.4 µM; in the assay on OVCAR-4 ovarian, 19.4 µM; with OVCAR-8 ovarian, 30.7 µM; in the assay on SF-268 CNS, more than 100 µM.
For the molecule `O=C(O)COc1ccc(C(=O)/C(SS/C(C(=O)c2ccc(OCC(=O)O)c(Cl)c2Cl)=C2\C=C(c3ccc(Br)cc3)SS2)=C2/C=C(c3ccc(Br)cc3)SS2)c(Cl)c1Cl`, the TGI was 28.4 µM in the assay on KM12 colon; more than 91.7 µM with A498 renal; more than 100 µM with TK-10 renal; 28.2 µM with U251 CNS; more than 100 µM in the assay with HT29 colon; 19.3 µM in the assay on UACC-62 melanoma. In addition, the TGI was 8.61 µM in the assay with T-47D breast, more than 50.1 µM in the assay on OVCAR-4 ovarian, more than 76 µM with OVCAR-8 ovarian and 34 µM with SF-268 CNS.
